Results taken from patent publication US7169809B2, “Nitric oxide releasing prodrugs of diaryl-2-(5H)-furanones as cyclooxygenase-2 inhibitors” (Merck Frosst Company, priority 2003, dated 2007).

Legend:
[1] = biological target: T1, COX-2 (Homo sapiens, UniProt P35354); test: Human whole blood cyclooxygenase assay, COX-2 (LPS-induced PGE2 production); format: cell-based
T1 construct: Fresh blood is collected in heparinized tubes by venipuncture from healthy male volunteers; from tissue; host or cells: fresh heparinized human whole blood from healthy male volunteers, LPS-stimulated for 24 h
T1 sequence (P35354 18-604): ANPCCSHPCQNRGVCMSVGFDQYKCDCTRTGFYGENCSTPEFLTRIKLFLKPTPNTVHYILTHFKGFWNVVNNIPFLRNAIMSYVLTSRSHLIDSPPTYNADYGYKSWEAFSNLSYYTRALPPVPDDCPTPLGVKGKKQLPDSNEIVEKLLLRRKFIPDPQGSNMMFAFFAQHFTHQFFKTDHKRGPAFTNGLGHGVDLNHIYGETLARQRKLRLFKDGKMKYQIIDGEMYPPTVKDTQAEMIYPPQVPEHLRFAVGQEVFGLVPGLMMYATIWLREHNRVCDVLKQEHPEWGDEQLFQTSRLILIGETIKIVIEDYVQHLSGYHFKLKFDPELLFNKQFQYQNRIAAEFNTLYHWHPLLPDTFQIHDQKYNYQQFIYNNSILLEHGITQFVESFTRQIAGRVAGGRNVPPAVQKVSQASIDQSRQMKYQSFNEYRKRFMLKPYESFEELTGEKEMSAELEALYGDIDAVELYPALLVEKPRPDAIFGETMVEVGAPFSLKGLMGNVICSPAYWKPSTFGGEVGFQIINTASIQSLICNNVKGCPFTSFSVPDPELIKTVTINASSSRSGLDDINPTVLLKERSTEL
Protocol: (§1) Whole blood provides a protein and cell-rich milieu for the study of biochemical efficacy of anti-inflammatory compounds such as COX-2 inhibitors and NSAIDs. To study the inhibitory activities of these compounds on the two isoforms of cyclooxygenase (COX-1 and COX-2), human blood is either stimulated with lipopolysaccharide (LPS) for 24 hours to induce COX-2 or the blood is allowed to clot spontaneously to activate COX-1. The production of prostaglandin E2 (PGE2) and thromboxane B2 (TXB2) are measured by immunoassay at the end of the incubation as readouts of COX-2 and COX-1 activity, respectively.
(§2) Human whole blood assays for COX-1 and COX-2 activity, previously reported (Brideau et al, 1996) are performed as described below.
Fresh blood is collected in heparinized tubes by venipuncture from healthy male volunteers. These subjects have no apparent inflammatory conditions and have not taken any NSAIDs for at least 7 days prior to blood collection. The blood is initially pre-incubated with bacterial lipopolysaccharide (LPS) at 100 μg/ml (Sigma Chem, #L-2630 from E. coli, serotype 0111:B4; diluted in 0.1% w/v bovine serine albumin in phosphate buffered saline). Five minutes later, 500 μL aliquots of the LPS-treated blood aree incubated with 2 μL vehicle (DMSO) or 2 μL of test compounds in DMSO for 24 hr at 37° C. (for induction of COX-2). […]

[2] = biological target: T2, COX-1 (Homo sapiens, UniProt P23219); test: Human whole blood cyclooxygenase assay, COX-1 (clotting-induced TXB2 production); format: cell-based; details: clotting 1 h, n=3, read-out: IC50 for inhibition of clotting-induced TXB2 level
T2 construct: Fresh blood from male or female volunteers is collected into vacutainers containing no anticoagulants; from tissue; host or cells: fresh human whole blood without anticoagulant, from male or female volunteers, allowed to clot for 1 h at 37 °C
T2 sequence (P23219 24-599): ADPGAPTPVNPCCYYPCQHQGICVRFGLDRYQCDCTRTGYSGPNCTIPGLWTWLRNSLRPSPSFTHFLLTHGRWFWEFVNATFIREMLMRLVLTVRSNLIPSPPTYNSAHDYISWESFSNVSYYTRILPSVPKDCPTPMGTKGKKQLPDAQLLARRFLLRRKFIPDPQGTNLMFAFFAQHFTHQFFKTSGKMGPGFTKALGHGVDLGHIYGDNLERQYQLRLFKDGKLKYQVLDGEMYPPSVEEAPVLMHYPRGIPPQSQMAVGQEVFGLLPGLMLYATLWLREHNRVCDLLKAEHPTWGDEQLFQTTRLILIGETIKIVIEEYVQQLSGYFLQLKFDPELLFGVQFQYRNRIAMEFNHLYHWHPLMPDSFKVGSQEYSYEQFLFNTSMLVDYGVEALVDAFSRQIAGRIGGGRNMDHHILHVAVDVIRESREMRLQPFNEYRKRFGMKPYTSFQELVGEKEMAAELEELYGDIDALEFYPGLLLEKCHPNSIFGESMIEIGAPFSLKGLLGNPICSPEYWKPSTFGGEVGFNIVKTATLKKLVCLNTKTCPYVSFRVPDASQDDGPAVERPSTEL
Protocol: as §1, §2
Fresh blood from male or female volunteers is collected into vacutainers containing no anticoagulants. These subjects have no apparent inflammatory conditions and have not taken any NSAIDs for at least 7 days prior to blood collection. Aliquots of 500 μL are immediately transferred to polypropylene tubes preloaded with 2 μL of DMSO or 2 μL of test compounds. The tubes are vortexed and incubated at 37° C. for 1 h to allow the blood to clot. At the end of the incubation, serum is obtained by centrifugation (3,000 rpm for 10 min at […]). […]

[3] = system: carrageenan-induced rat paw edema; test: Carrageenan-induced rat paw edema assay; format: in vivo; details: oral, 1 hr pretreatment, Sprague-Dawley rats, paw volume at 3 h, read-out: inhibition of carrageenan-induced edema response
Protocol: The carrageenan-induced rat paw edema assay is an established assay for evaluating the efficacy of conventional, non-selective NSAIDs in acute inflammation (Winter and Flataker, 1965; Mukherjee et al., 1996; Vinegar et al., 1987).
Male Sprague-Dawley rats (200–250 g) are fasted for 16–18 h prior to oral administration of either the vehicle (0.5% methocel) or test compound. One hour later, a line was drawn using a permanent marker at a level above the ankle in one hind paw to define the area of the paw to be monitored. The paw volume (V0) is measured using a plethysmometer (Ugo-Basile, Italy) based on the Archimedes principle of water displacement. The rats are then injected subplantarly with 0.05 mL of a 1% carrageenan (Sigma Chem.) solution in saline using a syringe with a 27-gauge needle (i.e. 500 μg carrageenan per paw). Three hours later, the paw volume (V3) is measured again and the increases in paw volume (V3−V0) is calculated. Paw edema is compared with the vehicle-control group and the percent inhibition calculated taking the values in the control group as 0%.

[4] = system: gastric erosions; test: Gastric erosion model in rats (co-dosed with aspirin); format: in vivo, rat; details: Wistar rats, compared to rofecoxib dosed with aspirin, 3 hr
Protocol: The gastric protective effects of the combination of the present invention co-administered with aspirin may be evaluated in the following assay.
Male Wistar rats (200–250 g) were fasted for 16–18 h prior to use for experiment. Aspririn, rofecoxib in combination with aspirin (dosed separately), or test compound in combination with aspirin (dosed separately) were given on the morning of the experiment at a dosing volume of 1 ml/kg in 0.5% methocel. Three hr later, the animals were euthanized by CO2 inhalation and the stomach removed, rinsed in saline and prepared for imaging processing. Microscopic pictures of the stomach were taken using a digital camera and gastric erosions were measured using an imaging software by an observer unaware of the treatment groups. The length of gastric erosions was measured in mm and the total length of all erosions from each stomach was obtained and used as gastric damage score.
This model is also described in S. Fiorucci, et al., Gastroenterology, vol. 123, pp. 1598–1606, 2002 and M. Souza, et al., Am. J. Physiol. Gastrointest. Liver Physiol., vol. 285, pp. G54–G61, 2003.

IC50 ([1]; LPS-stimulated human whole blood, 24 hr, n=6, read-out: IC50 for the inhibition of PGE2 production in a human whole blood assay): 0.22 ± 0.04 µM
COX1/COX2 selectivity ([1]; in vitro human peripheral blood assay, ratio of COX-1 to COX-2 IC50): 35 fold
IC50 [2]: 7.8 ± 2.6 µM
SMILES: CC(=O)OC/C(=C(\C(=O)OCCCCCCO[N+](=O)[O-])c1ccccc1)c1ccc(S(C)(=O)=O)cc1 [Example 1, 6-(nitrooxy)hexyl (2Z)-4-(acetyloxy)-3-[4-(methylsulfonyl)phenyl]-2-phenylbut-2-enoate]
inhibition at 1 mg/kg [3]: 49%
gastric protection (gastric damage score) [4]: significant gastric protection
